From US10323036B2 (Nimbus Lakshmi, Inc., priority 2016, dated 2019)
Like-named read-outs stand apart in the source and are kept apart here.

Biological target: human TYK2 (JH2domain-pseudokinase) (Homo sapiens (Human), UniProt P29597)
Assay: TYK2 JH2 Domain Binding Assay (KINOMEscan)
[1] = Table 4, JH2 binding assay, read-out: JH2 Kd
[2] = Table 5, Tyk2 JH2 Domain Binding Assay, read-out: JH2 Kd

human TYK2 (JH2domain-pseudokinase), sequence (P29597 556-888): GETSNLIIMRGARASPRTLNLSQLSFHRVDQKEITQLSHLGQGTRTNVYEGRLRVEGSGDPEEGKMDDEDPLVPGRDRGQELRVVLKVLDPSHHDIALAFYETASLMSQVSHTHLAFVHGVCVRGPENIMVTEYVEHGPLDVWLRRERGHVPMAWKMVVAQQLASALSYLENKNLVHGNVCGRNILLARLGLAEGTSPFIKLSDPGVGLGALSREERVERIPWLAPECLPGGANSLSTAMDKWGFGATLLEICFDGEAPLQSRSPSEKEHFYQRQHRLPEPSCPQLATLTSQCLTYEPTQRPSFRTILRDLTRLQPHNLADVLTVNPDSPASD

Row | SMILES | Kd [1] [nM] | also measured
1 | COc1c(Cl)cccc1Nc1cc(Nc2ccc(C(F)F)c(C#N)n2)nc2[nH]n(C)c(=O)c12 [Compound I-156, 6-((4-((3-chloro-2-methoxyphenyl)amino)-2-methyl-3-oxo-2,3-dihydro-1H-pyrazolo[3,4-b]pyridin-6-yl)amino)-3-(difluoromethyl)picolinonitrile] | > 10 | 
2 | Cn1[nH]c2nc(NC(=O)C3CC3)cc(Nc3ccccc3P(C)(C)=O)c2c1=O [Compound I-125, N-(4-((2-(dimethylphosphoryl)phenyl)amino)-2-methyl-3-oxo-2,3-dihydro-1H-pyrazolo[3,4-b]pyridin-6-yl)cyclopropanecarboxamide] | > 10 | 
3 | COc1c(C#N)cccc1Nc1cc(Nc2ccc(C#N)cn2)nc2[nH]n(C)c(=O)c12 [Compound I-41] | > 10 | 
4 | Cn1[nH]c2nc(NC(=O)C3CC3)cc(Nc3ccc(C(=O)N4CCCC4)cc3OC(F)F)c2c1=O [Compound I-151] | > 10 | 
5 | COc1c(Cl)cccc1Nc1cc(Nc2cc(C)c(F)cn2)nc2[nH]n(C)c(=O)c12 [Compound I-95, 4-((3-chloro-2-methoxyphenyl)amino)-6-((5-fluoro-4-methylpyridin-2-yl)amino)-2-methyl-1,2-dihydro-3H-pyrazolo[3,4-b]pyridin-3-one] | 1 to 10 | 
6 | COc1c(Nc2cc(Nc3ccc(C4CC4)cn3)nc3[nH]n(C)c(=O)c23)cccc1-c1nnn(C)n1 [Compound I-59, 6-((5-cyclopropylpyridin-2-yl)amino)-4-((2-methoxy-3-(2-methyl-2H-tetrazol-5-yl)phenyl)amino)-2-methyl-1,2-dihydro-3H-pyrazolo[3,4-b]pyridin-3-one] | 0.1 to 0.5 | 
7 | CCc1nn(-c2cccc(-c3nnn(C)n3)c2OC)c2cc(NC(=O)C3CC3)ncc12 [XVI-4, N-(3-ethyl-1-(2-methoxy-3-(2-methyl-2H-tetrazol-5-yl)phenyl)-1H-pyrazolo[4,3-c]pyridin-6-yl)cyclopropanecarboxamide] |  | Kd [2]: 0.1 to 1 nM
8 | CNc1nc(-c2cccc(-c3nnn(C)n3)c2OC)n2cc(NC(=O)C3CC3)ncc12 [XVI-2] |  | Kd [2]: > 100 nM; Kd (Tyk2 JH2 Domain Binding Assay, read-out: Kd): 10 to 185 nM
9 | COc1c(F)cccc1Nc1cc(Nc2ccc(C)nn2)nc2[nH]n(C)c(=O)c12 [Compound I-75, 4-((3-fluoro-2-methoxyphenyl)amino)-2-methyl-6-((6-methylpyridazin-3-yl)amino)-1,2-dihydro-3H-pyrazolo[3,4-b]pyridin-3-one] | 0.1 to 0.5 | 
10 | COc1c(Nc2cc(Nc3cc(C#N)ncn3)nc3[nH]n(C)c(=O)c23)cccc1-c1ncn(C)n1 [Compound I-31, 6-((4-((2-methoxy-3-(1-methyl-1H-1,2,4-triazol-3-yl)phenyl)amino)-2-methyl-3-oxo-2,3-dihydro-1H-pyrazolo[3,4-b]pyridin-6-yl)amino)pyrimidine-4-carbonitrile] | < 0.1 | 
11 | COc1c(Nc2cc(Cl)nc3[nH]n(C)c(=O)c23)cccc1-c1nnn(C)n1 [Compound I-27] | > 10 | 
12 | COc1c(F)cccc1Nc1cc(Nc2ccc(C#N)cn2)nc2[nH]n(C)c(=O)c12 [Compound I-79, 6-((4-((3-fluoro-2-methoxyphenyl)amino)-2-methyl-3-oxo-2,3-dihydro-1H-pyrazolo[3,4-b]pyridin-6-yl)amino)nicotinonitrile] | 1 to 10 | 
13 | COc1c(Cl)cccc1Nc1cc(Nc2ccc(N3CC[C@H](OC)C3)c(C#N)n2)nc2[nH]n(C)c(=O)c12 [Compound I-145, (S)-6-((4-((3-chloro-2-methoxyphenyl)amino)-2-methyl-3-oxo-2,3-dihydro-1H-pyrazolo[3,4-b]pyridin-6-yl)amino)-3-(3-methoxypyrrolidin-1-yl)picolinonitrile] | 0.1 to 0.5 | 
14 | Cn1[nH]c2nc(NC(=O)[C@H]3CC3(F)F)cc(Nc3ccc(C4CC4)cc3S(C)(=O)=O)c2c1=O [Compound I-238, (R)-N-(4-((4-cyclopropyl-2-(methylsulfonyl)phenyl)amino)-2-methyl-3-oxo-2,3-dihydro-1H-pyrazolo[3,4-b]pyridin-6-yl)-2,2-difluorocyclopropane-1-carboxamide] | 0.1 to 0.5 | 
15 | COc1c(C#N)cccc1Nc1cc(Nc2ccc(N3CCCCC3)cn2)nc2[nH]n(C)c(=O)c12 [Compound I-40] | > 10 | 
16 | COc1c(Nc2cc(NC(=O)C3CC3)ncc2-c2noc(CO)n2)cccc1-c1ncn(C)n1 [VIII-9, N-(5-(5-(hydroxymethyl)-1,2,4-oxadiazol-3-yl)-4-((2-methoxy-3-(1-methyl-1H-1,2,4-triazol-3-yl)phenyl)amino)pyridin-2-yl)cyclopropanecarboxamide] |  | Kd [2]: > 100 nM
17 | Cn1[nH]c2nc(Nc3cccc(C#N)n3)cc(Nc3ccc(Cl)cc3S(C)(=O)=O)c2c1=O [Compound I-203, 6-((4-((4-chloro-2-(methylsulfonyl)phenyl)amino)-2-methyl-3-oxo-2,3-dihydro-1H-pyrazolo[3,4-b]pyridin-6-yl)amino)picolinonitrile] | 0.5 to 1 | 
18 | COc1c(F)cccc1Nc1cc(Nc2ccc(C(F)F)c(C#N)n2)nc2[nH]n(C)c(=O)c12 [Compound I-191, 3-(difluoromethyl)-6-((4-((3-fluoro-2-methoxyphenyl)amino)-2-methyl-3-oxo-2,3-dihydro-1H-pyrazolo[3,4-b]pyridin-6-yl)amino)picolinonitrile] | > 10 | 

Row | SMILES | Kd [1] [nM] | also measured
19 | COc1c(Cl)cccc1Nc1cc(Nc2ccc(N3CCOCC3)cn2)nc2[nH]n(C)c(=O)c12 [Compound I-115, 4-((3-chloro-2-methoxyphenyl)amino)-2-methyl-6-((5-morpholinopyridin-2-yl)amino)-1,2-dihydro-3H-pyrazolo[3,4-b]pyridin-3-one] | 1 to 10 | 
20 | COc1c(Cl)cccc1Nc1cc(Nc2ccn(C)n2)nc2[nH]n(C)c(=O)c12 [Compound I-136, 4-((3-chloro-2-methoxyphenyl)amino)-2-methyl-6-((1-methyl-1H-pyrazol 3-yl)amino)-1,2-dihydro-3H-pyrazolo[3,4-b]pyridin-3-one] | 1 to 10 | 
21 | COc1c(Nc2cc(Nc3cccc(C#N)n3)nc3[nH]n(C)c(=O)c23)cccc1-c1ccn(C)n1 [Compound I-122, 6-((4-((2-methoxy-3-(1-methyl-1H-pyrazol-3-yl)phenyl)amino)-2-methyl-3-oxo-2,3-dihydro-1H-pyrazolo[3,4-b]pyridin-6-yl)amino)picolinonitrile] | 0.1 to 0.5 | 
22 | CCn1nc(-c2cccc(-c3nnn(C)n3)c2OC)c2cc(NC(=O)C3CC3)ncc21 [XVI-5, N-(1-ethyl-3-(2-methoxy-3-(2-methyl-2H-tetrazol-5-yl)phenyl)-1H-pyrazolo[3,4-c]pyridin-5-yl)cyclopropanecarboxamide] |  | Kd [2]: 10 to 100 nM
23 | COc1cc(C2CC2)ccc1Nc1cc(NC(=O)C2CC2)nc2[nH]n(C)c(=O)c12 [Compound I-50, N-(4-((4-cyclopropyl-2-methoxyphenyl)amino)-2-methyl-3-oxo-2,3-dihydro-1H-pyrazolo[3,4-b]pyridin-6-yl)cyclopropanecarboxamide] | 1 to 10 | 
24 | COc1c(C#N)cccc1Nc1cc(Nc2ccc(C)cn2)nc2[nH]n(C)c(=O)c12 [Compound I-34] | > 10 | 
25 | CCc1ccc(Nc2cc(NC(=O)C3CC3)nc3[nH]n(C)c(=O)c23)c(N(C)S(C)(=O)=O)c1 [Compound I-217, N-(4-((4-ethyl-2-(N-methylmethylsulfonamido)phenyl)amino)-2-methyl-3-oxo-2,3-dihydro-1H-pyrazolo[3,4-b]pyridin-6-yl)cyclopropanecarboxamide] | < 0.1 | 
26 | COc1c(Nc2cc(NC(=O)C3CC3)nc3[nH]n(C)c(=O)c23)cccc1-c1noc(C)n1 [Compound I-131] | 0.1 to 0.5 | 
27 | Cc1ccnc(Nc2cc(Nc3ccccc3S(C)(=O)=O)c3c(=O)n(C)[nH]c3n2)c1 [Compound I-138, 2-methyl-6-((4-methylpyridin-2-yl)amino)-4-((2-(methylsulfonyl)phenyl)amino)-1,2-dihydro-3H-pyrazolo[3,4-b]pyridin-3-one] | 0.5 to 1 | 
28 | COc1c(Nc2cc(Nc3cc(CO)ccn3)nc3[nH]n(C)c(=O)c23)cccc1-c1ncn(C)n1 [Compound I-19, 6-((4-(hydroxymethyl)pyridin-2-yl)amino)-4-((2-methoxy-3-(1-methyl-1H-1,2,4-triazol-3-yl)phenyl)amino)-2-methyl-1,2-dihydro-3H-pyrazolo[3,4-b]pyridin-3-one] | 1 to 10 | 
29 | COc1c(C#N)cccc1Nc1cc(Nc2ccc(N3CCOCC3)cn2)nc2[nH]n(C)c(=O)c12 [Compound I-36] | > 10 | 
30 | COc1c(Cl)cccc1Nc1cc(Nc2ccc(N3CCC3)c(C#N)n2)nc2[nH]n(C)c(=O)c12 [Compound I-144, 3-(azetidin-1-yl)-6-((4-((3-chloro-2-methoxyphenyl)amino)-2-methyl-3-oxo-2,3-dihydro-1H-pyrazolo[3,4-b]pyridin-6-yl)amino)picolinonitrile] | 0.1 to 0.5 | 
31 | COCc1ccc(Nc2cc(NC(=O)C3CC3)nc3[nH]n(C)c(=O)c23)c(N(C)S(C)(=O)=O)c1 [Compound I-218] | < 0.1 | 
32 | CN(c1ccccc1Nc1cc(NC(=O)[C@@H]2C[C@@H]2F)nc2[nH]n(C)c(=O)c12)S(C)(=O)=O [Compound I-216, (1S,2S)-2-fluoro-N-(2-methyl-4-((2-(N-methylmethylsulfonamido)phenyl)amino)-3-oxo-2,3-dihydro-1H-pyrazolo[3,4-b]pyridin-6-yl)cyclopropane-1-carboxamide] | 0.1 to 0.5 | 
33 | Cn1[nH]c2nc(Nc3cncc(C#N)n3)cc(Nc3ccc(C4CC4)cc3S(C)(=O)=O)c2c1=O [Compound I-212, 6-((4-((4-cyclopropyl-2-(methylsulfonyl)phenyl)amino)-2-methyl-3-oxo-2,3-dihydro-1H-pyrazolo[3,4-b]pyridin-6-yl)amino)pyrazine-2-carbonitrile] | > 10 | 
34 | COc1c(Nc2cc(Nc3cc(C)c(F)cn3)nc3[nH]n(C)c(=O)c23)cccc1-c1nnn(C)n1 [Compound I-8, 6-((5-fluoro-4-methylpyridin-2-yl)amino)-4-((2-methoxy-3-(2-methyl-2H-tetrazol-5-yl)phenyl)amino)-2-methyl-1,2-dihydro-3H-pyrazolo[3,4-b]pyridin-3-one] | < 0.1 | 
35 | Cc1ccc(Nc2cc(Nc3ccc(Cl)cc3S(C)(=O)=O)c3c(=O)n(C)[nH]c3n2)nn1 [Compound I-157, 4-((4-chloro-2-(methylsulfonyl)phenyl)amino)-2-methyl-6-((6-methylpyridazin-3-yl)amino)-1,2-dihydro-3H-pyrazolo[3,4-b]pyridin-3-one] | 0.5 to 1 | 
